Where no end group is shown, it is not given here.
How the values were obtained:
[1] = system: Vero cells
[2] = system: African swine fever virus (ASFV) BA71V; assay type: cell-based

Substance	proliferation of Vero cells (proliferative index) [1]	I.C.E. at 50 μM (inhibition of the cytopathic effect) [2]	I.C.E. at 100 μM (inhibition of the cytopathic effect) [2]
RRRRRRRRSLVSSDESSSGSSHSSGEHS [RS28]	not modified		
SS20: 20-residue negative control peptide of irrelevant sequence (SLVSSDESSSGSSHSSGEHS) [reference compound]		no	no

From US8592552B2 (priority 2007, dated 2013)
